Values quoted from earlier work in PubChem BioAssay AID1259409 (Chemical Carcinogenesis Research Information System (CCRIS), 2018).

Tested on: rodent chemically induced tumor inhibition, incidence and multiplicity
Experiment: CCRIS tumor inhibitor studies
Details: Dose [Inhibitor]: 0, Route [Inhibitor]: ORAL, Promoter: NONE USED

## CC1=C(/C=C/C(C)=C/C=C/C(C)=C/C=C/C=C(C)/C=C/C=C(C)/C=C/C2=C(C)CCCC2(C)C)C(C)(C)CCC1
Carcinogen: N-ETHYL-N'-NITRO-N-NITROSOGUANIDINE, 4245-77-6, 0.005% PALM CAROTENE IN DRINKING WATER FOR 16 WK BEGINNING POST CARCINOGEN TREATMENT (STUDY DURATION: 20 WK), Species: MOUSE, Strain/Sex: C57BL/MALE, Target Tissue: Type of Lesion: DUODENUM: TUMOR, Dose [Carcinogen]: 100 MG/L IN DRINKING WATER FOR 4 WK
  tumour outcome (control, treated, inhibition, significance): 18/27 (67%), 8/16 (50%), 25%, not significant
Carcinogen: N-ETHYL-N'-NITRO-N-NITROSOGUANIDINE, 4245-77-6, 0.05% PALM CAROTENE IN DRINKING WATER FOR 16 WK BEGINNING POST CARCINOGEN TREATMENT (STUDY DURATION: 20 WK), Species: MOUSE, Strain/Sex: C57BL/MALE, Target Tissue: Type of Lesion: DUODENUM: TUMOR, Dose [Carcinogen]: 100 MG/L IN DRINKING WATER FOR 4 WK
  tumour outcome (control, treated, inhibition, significance): 18/27 (67%), 11/28 (39%), 42%, p<0.05
Carcinogen: N-METHYL-N'-NITRO-N-NITROSOGUANIDINE, 70-25-7, 0.4% IN DIET FOR 2 WK PRIOR TO FIRST CARCINOGEN DOSE FOLLOWED BY 0, 0.2% IN DIET FOR 25 WK (STUDY DURATION: 27 WK), 0.4% IN DIET FOR 2 WK PRIOR TO FIRST CARCINOGEN DOSE FOLLOWED BY 0, 0.2% IN DIET FOR 25 WK (STUDY DURATION: 27 WK), Species: RAT, Strain/Sex: WISTAR/MALE, Target Tissue: Type of Lesion: COLON: ADENOCARCINOMA, Dose [Carcinogen]: 0.15 ML OF A 13.4 MG/ML SOLUTION IN DISTILLED WATER 2/WK FOR 3 WK
  tumour outcome (control, treated, inhibition, significance): 34/36 (94%), 34/35 (97%), -3%, not calculated
Carcinogen: N-METHYL-N'-NITRO-N-NITROSOGUANIDINE, 70-25-7, 0.4% IN DIET FOR 2 WK PRIOR TO FIRST CARCINOGEN DOSE FOLLOWED BY 0, 0.2% IN DIET FOR 25 WK (STUDY DURATION: 27 WK), 0.4% IN DIET FOR 2 WK PRIOR TO FIRST CARCINOGEN DOSE FOLLOWED BY 0, 0.2% IN DIET FOR 25 WK (STUDY DURATION: 27 WK), Species: RAT, Strain/Sex: WISTAR/MALE, Target Tissue: Type of Lesion: COLON: ADENOMA, Dose [Carcinogen]: 0.15 ML OF A 13.4 MG/ML SOLUTION IN DISTILLED WATER 2/WK FOR 3 WK
  tumour outcome (control, treated, inhibition, significance): 17/36 (47%), 24/35 (69%), -47%, not calculated
Carcinogen: N-METHYL-N'-NITRO-N-NITROSOGUANIDINE, 70-25-7, 0.4% IN DIET FOR 2 WK PRIOR TO FIRST CARCINOGEN DOSE FOLLOWED BY 0, 0.2% IN DIET FOR 52 WK (STUDY DURATION: 54 WK), 0.4% IN DIET FOR 2 WK PRIOR TO FIRST CARCINOGEN DOSE FOLLOWED BY 0, 0.2% IN DIET FOR 52 WK (STUDY DURATION: 54 WK), Species: RAT, Strain/Sex: WISTAR/MALE, Target Tissue: Type of Lesion: GLANDULAR STOMACH: ADENOCARCINOMA, Dose [Carcinogen]: 80 UG/ML IN DRINKING WATER FOR 52 WK
  tumour outcome (control, treated, inhibition, significance): 7/36 (19%), 4/35 (11%), 42%, not calculated
Carcinogen: N-METHYL-N'-NITRO-N-NITROSOGUANIDINE, 70-25-7, 0.4% IN DIET FOR 2 WK PRIOR TO FIRST CARCINOGEN DOSE FOLLOWED BY 0, 0.2% IN DIET FOR 52 WK (STUDY DURATION: 54 WK), 0.4% IN DIET FOR 2 WK PRIOR TO FIRST CARCINOGEN DOSE FOLLOWED BY 0, 0.2% IN DIET FOR 52 WK (STUDY DURATION: 54 WK), Species: RAT, Strain/Sex: WISTAR/MALE, Target Tissue: Type of Lesion: GLANDULAR STOMACH: LEIOMYOSARCOMA, Dose [Carcinogen]: 80 UG/ML IN DRINKING WATER FOR 52 WK
  outcome: 0/36 (0%), 2/35 (6%), -600%, not calculated
Carcinogen: N-METHYL-N'-NITRO-N-NITROSOGUANIDINE, 70-25-7, 0.4% IN DIET FOR 2 WK PRIOR TO FIRST CARCINOGEN DOSE FOLLOWED BY 0, 0.2% IN DIET FOR 52 WK (STUDY DURATION: 54 WK), 0.4% IN DIET FOR 2 WK PRIOR TO FIRST CARCINOGEN DOSE FOLLOWED BY 0, 0.2% IN DIET FOR 52 WK (STUDY DURATION: 54 WK), Species: RAT, Strain/Sex: WISTAR/MALE, Target Tissue: Type of Lesion: SMALL INTESTINE: ADENOCARCINOMA, Dose [Carcinogen]: 80 UG/ML IN DRINKING WATER FOR 52 WK
  tumour outcome (control, treated, inhibition, significance): 10/36 (28%), 17/35 (49%), -75%, p= 0.12
Carcinogen: N-METHYL-N'-NITRO-N-NITROSOGUANIDINE, 70-25-7, 0.4% IN DIET FOR 2 WK PRIOR TO FIRST CARCINOGEN DOSE FOLLOWED BY 0, 0.2% IN DIET FOR 52 WK (STUDY DURATION: 54 WK), 0.4% IN DIET FOR 2 WK PRIOR TO FIRST CARCINOGEN DOSE FOLLOWED BY 0, 0.2% IN DIET FOR 52 WK (STUDY DURATION: 54 WK), Species: RAT, Strain/Sex: WISTAR/MALE, Target Tissue: Type of Lesion: SMALL INTESTINE: ADENOMA, Dose [Carcinogen]: 80 UG/ML IN DRINKING WATER FOR 52 WK
  tumour outcome (control, treated, inhibition, significance): 1/36 (3%), 0/35 (0%), 100%, not calculated
Carcinogen: N-METHYL-N'-NITRO-N-NITROSOGUANIDINE, 70-25-7, 0.4% IN DIET FOR 2 WK PRIOR TO FIRST CARCINOGEN DOSE FOLLOWED BY 0, 0.2% IN DIET FOR 52 WK (STUDY DURATION: 54 WK), 0.4% IN DIET FOR 2 WK PRIOR TO FIRST CARCINOGEN DOSE FOLLOWED BY 0, 0.2% IN DIET FOR 52 WK (STUDY DURATION: 54 WK), Species: RAT, Strain/Sex: WISTAR/MALE, Target Tissue: Type of Lesion: SMALL INTESTINE: ANGIOSARCOMA, Dose [Carcinogen]: 80 UG/ML IN DRINKING WATER FOR 52 WK
  tumour outcome (control, treated, inhibition, significance): 3/36 (8%), 6/35 (17%), -113%, not calculated
